Source: US9353051B2, “Antiviral drugs for treatment or prevention of dengue infection” (Siga Technologies Inc., priority 2007, dated 2016)
Where two headings read alike, the source gives them in different places.

Legend:
[1] = tested on: Dengue-2 (Strain New Guinea C); test: viral yield assay against Dengue-2 in Vero cells; type: cell-based; details: Dengue virus, Vero cells; for EC90: read-out: EC90 Yield Den-2
Method in brief: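 Vero cells infected with dengue-2 at MOI 0.1 were treated with compound (DMSO control) at 37° C., harvested 48 h post infection and titered on Vero cells.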

[2] = tested on: Bovine Viral Diarrhea Virus (BVDV); test: specificity: activity against BVDV; type: cell-based; details: Bovine viral diarrhea virus isolates and strains; read-out: Specificity BVDV
Protocol: Select compounds were also tested for more broad spectrum activity against other members of the Flaviviridae family including Modoc, which is a murine flavivirus, as well as Bovine Viral Diarrhea Virus (BVDV), which is a Pestivirus. Since dengue virus is able to replicate in multiple cell lines and to ensure that the activity seen in vero cells is consistent, select compounds were also tested for their effective concentration in a viral yield assay against dengue-2 in C6/36 mosquito cells.

[3] = MOI 0.1, harvested 48 hours post infection, read-out: Activity (anti-dengue 2 viral activity, EC50)
[4] = viral yield assay, read-out: EC50 Yield Den-2

Row | SMILES | EC50 [1, 3] [µM] | also measured
1 | CC(C)N(C)S(=O)(=O)c1ccc(NC(=O)Cn2cnc3ccc(Cl)cc3c2=O)cc1 [Compound 6, 2-(6-Chloro-4-oxo-4H-quinazolin-3-yl)-N-[4-(isopropyl-methyl-sulfamoyl)-phenyl]-acetamide] | 1 to 10 | EC50 [1, 4]: 1.8 µM; EC90 ([1]; viral yield assay): 43.2 µM; EC50 [2]: 64 µM
2 | CC(C)N(C)S(=O)(=O)c1ccc(NC(=O)Cn2cnc3cc(F)ccc3c2=O)cc1 [Compound 7, 2-(7-Fluoro-4-oxo-4H-quinazolin-3-yl)-N-[4-(isopropyl-methyl-sulfamoyl)-phenyl]-acetamide] | 1 to 10 | EC50 [1, 4]: 4.6 µM; EC90 ([1]; viral yield assay): > 50 µM; EC50 [2]: > 50 µM
3 | CCN(CC)S(=O)(=O)c1ccc(NC(=O)Cn2[nH]c(=O)c3ccccc3c2=O)cc1 [Compound 8, N-(4-Diethylsulfamoyl-phenyl)-2-(1,4-dioxo-3,4-dihydro-1H-phthalazin-2-yl)-acetamide] | 1 to 10 | EC50 [1, 4]: 2.8 µM; EC90 ([1]; viral yield assay): 25.6 µM; EC50 [2]: > 50 µM
4 | CCN(CC)S(=O)(=O)c1ccc(NC(=O)CN2C(=O)c3cccc4cccc(c34)C2=O)cc1 [Compound 9, N-(4-Diethylsulfamoyl-phenyl)-2-(1,3-dioxo-1H,3H-benzo[de]isoquinolin-2-yl)-acetamide] | 1 to 10 | EC50 [1, 4]: 1.3 µM; EC90 ([1]; viral yield assay): 7.3 µM; EC50 [2]: > 50 µM
5 | NS(=O)(=O)c1ccc(NC(=O)Cn2cnc3cc([N+](=O)[O-])ccc3c2=O)cc1 [Compound 110, 2-(7-Nitro-4-oxo-4H-quinazolin-3-yl)-N-(4-sulfamoyl-phenyl)-acetamide] | > 25 | –
6 | NS(=O)(=O)c1ccc(NC(=O)COC(=O)Cn2cnc3ccccc3c2=O)cc1 [Compound 111, (4-Oxo-4H-quinazolin-3-yl)-acetic acid (4-sulfamoyl-phenylcarbamoyl)-methyl ester] | > 25 | –
7 | CN(Cc1nc2ccccc2c(=O)[nH]1)C(=O)c1ccc(S(=O)(=O)N(C)C)cc1 [Compound 112, 4-Dimethylsulfamoyl-N-methyl-N-(4-oxo-3,4-dihydro-quinazolin-2-ylmethyl)-benzamide] | > 25 | –
8 | O=C(Cn1nnc2ccccc2c1=O)Nc1ccc(S(=O)(=O)N2CCCC2)cc1 [Compound 113, 2-(4-Oxo-4H-benzo[d][1,2,3]triazin-3-yl)-N-[4-(pyrrolidine-1-sulfonyl)-phenyl]-acetamide] | > 25 | –
9 | CCN(CC(=O)NCCc1ccc(S(N)(=O)=O)cc1)Cc1nc2ccccc2c(=O)[nH]1 [Compound 114, 2-[Ethyl-(4-oxo-3,4-dihydro-quinazolin-2-ylmethyl)-arnino]-N-[2-(4-sulfamoyl-phenyl)-ethyl]-acetamide] | > 25 | –
10 | CCN(CC(=O)Nc1ccc(S(=O)(=O)N(C)C)cc1)Cc1nc2ccccc2c(=O)[nH]1 [Compound 115, N-(4-Dimethylsulfamoyl-phenyl)-2-[ethyl-(4-oxo-3,4-dihydro-quinazolin-2-ylmethyl)-amino]-acetamide] | > 25 | –
11 | NS(=O)(=O)c1ccc(NC(=O)COC(=O)CCc2nc3ccccc3c(=O)[nH]2)cc1 [Compound 116, 3-(4-Oxo-3,4-dihydro-quinazolin-2-yl)-propionic acid (4-sulfamoyl-phenylcarbamoyl)-methyl ester] | > 25 | –
12 | Cc1ccc(S(=O)(=O)N(C)c2ccc(OC(=O)Cn3cnc4ccccc4c3=O)cc2)cc1C [Compound 117, (4-Oxo-4H-quinazolin-3-yl)-acetic acid 4-[(3,4-dimethyl-benzenesulfonyl)-methyl-amino]-phenyl ester] | > 25 | –
13 | CCN(CC(=O)NCCc1ccc(S(N)(=O)=O)cc1)Cc1nc2cc(OC)c(OC)cc2c(=O)[nH]1 [Compound 118, 2-[(6,7-Dimethoxy-4-oxo-3,4-dihydro-quinazolin-2-ylmethyl)-ethyl-amino]-N-[2-(4-sulfamoyl-phenyl)-ethyl]-acetamide] | > 25 | –
14 | NS(=O)(=O)c1ccc(NC(=O)Cn2c(=O)cnc3ccccc32)cc1 [Compound 119, 2-(2-Oxo-2H-quinoxalin-1-yl)-N-(4-sulfamoyl-phenyl)-acetamide] | > 25 | –
15 | CCN(CC(=O)Nc1ccc(S(N)(=O)=O)cc1)Cc1nc2cc(OC)c(OC)cc2c(=O)[nH]1 [Compound 120, 2-[(6,7-Dimethoxy-4-oxo-3,4-dihydro-quinazolin-2-ylmethyl)-ethyl-amino]-N-(4-sulfamoyl-phenyl)-acetamide] | > 25 | –
16 | O=C(Cn1cnc2ccccc2c1=O)Nc1cccc(S(=O)(=O)N2CCCC2)c1 [Compound 121, 2-(4-Oxo-4H-quinazolin-3-yl)-N-[3-(pyrrolidine-1-sulfonyl)-phenyl]-acetamide] | > 25 | –
17 | CN(c1ccccc1)S(=O)(=O)c1cccc(NC(=O)Cn2cnc3ccccc3c2=O)c1 [Compound 122, N-[3-(Methyl-phenyl-sulfamoyl)-phenyl]-2-(4-oxo-4H-quinazolin-3-yl)-acetamide] | > 25 | –

Row | SMILES | EC50 [1, 3] [µM] | also measured
18 | O=C(Cn1cnc2cc([N+](=O)[O-])ccc2c1=O)Nc1ccc(S(=O)(=O)N2CCCC2)cc1 [Compound 123, 2-(7-Nitro-4-oxo-4H-quinazolin-3-yl)-N-[4-(pyrrolidine-1-sulfonyl)-phenyl]-acetamide] | > 25 | –
19 | O=C(COC(=O)Cn1cnc2ccccc2c1=O)Nc1ccc(S(=O)(=O)N2CCCC2)cc1 [Compound 124, (4-Oxo-4H-quinazolin-3-yl)-acetic acid [4-(pyrrolidine-1-sulfonyl)-phenylcarbamoyl]-methyl ester] | > 25 | –
20 | COc1ccc(S(=O)(=O)N(C)C)cc1NC(=O)COC(=O)Cn1cnc2ccccc2c1=O [Compound 125, (4-Oxo-4H-quinazolin-3-yl)-acetic acid (5-dimethylsulfamoyl-2-methoxy-phenylcarbamoyl)-methyl ester] | > 25 | –
21 | COc1ccc(S(=O)(=O)N(C)C)cc1NC(=O)Cn1cnc2cc([N+](=O)[O-])ccc2c1=O [Compound 126, N-(5-Dimethylsulfamoyl-2-methoxy-phenyl)-2-(7-nitro-4-oxo-4H-quinazolin-3-yl)-acetamide] | > 25 | –
22 | O=C(Cn1cnc2ccccc2c1=O)Nc1ccc(S(=O)(=O)O)cc1 [Compound 127, 4-[2-(4-Oxo-4H-quinazolin-3-yl)-acetylamino]-benzenesulfonic acid] | > 25 | –
23 | CN(C)S(=O)(=O)c1cccc(COC(=O)Cn2cnc3ccccc3c2=O)c1 [Compound 128, (4-Oxo-4H-quinazolin-3-yl)-acetic acid 3-dimethylsulfamoyl-benzyl ester] | > 25 | –
24 | Cc1ccc(S(=O)(=O)N(C)C)cc1NC(=O)Cn1cnc2ccc(Cl)cc2c1=O [Compound 129, 2-(6-Chloro-4-oxo-4H-quinazolin-3-yl)-N-(5-dimethylsulfamoyl-2-methyl-phenyl)-acetamide] | > 25 | –
25 | NS(=O)(=O)c1ccc(CCNC(=O)Cn2c(=O)cnc3ccccc32)cc1 [Compound 130, 2-(2-Oxo-2H-quinoxalin-1-yl)-N-[2-(4-sulfamoyl-phenyl)-ethyl]-acetamide] | > 25 | –
26 | NS(=O)(=O)c1cccc(NC(=O)Cn2nnc3ccccc3c2=O)c1 [Compound 131, 2-(4-Oxo-4H-benzo[d][1,2,3]triazin-3-yl)-N-(3-sulfamoyl-phenyl)-acetamide] | > 25 | –
27 | CC(c1ccc(S(N)(=O)=O)cc1)N(C)C(=O)CCc1nc2ccccc2c(=O)[nH]1 (stereo not shown) [Compound 132, N-Methyl-3-(4-oxo-3,4-dihydro-quinazolin-2-yl)-N-[1-(4-sulfamoyl-phenyl)-ethyl]-propionamide] | > 25 | –
28 | CC(C)NS(=O)(=O)c1ccc(NC(=O)C(C)N(C)Cc2nc3ccccc3c(=O)[nH]2)cc1 (stereo not shown) [Compound 133, N-(4-Isopropylsulfamoyl-phenyl)-2-[methyl-(4-oxo-3,4-dihydro-quinazolin-2-ylmethyl)-amino]-propionamide] | > 25 | –
29 | O=C(Cn1cnc2ccc([N+](=O)[O-])cc2c1=O)Nc1ccc(S(=O)(=O)N2CCCCC2)cc1 [Compound 134, 2-(6-Nitro-4-oxo-4H-quinazolin-3-yl)-N-[4-(piperidine-1-sulfonyl)-phenyl]-acetamide] | > 25 | –
30 | O=C(Cn1cnc2ccc([N+](=O)[O-])cc2c1=O)Nc1ccc(S(=O)(=O)N2CCOCC2)cc1 [Compound 135, N-[4-(Morpholine-4-sulfonyl)-phenyl]-2-(6-nitro-4-oxo-4H-quinazolin-3-yl)-acetamide] | > 25 | –
31 | COc1ccc(NC(=O)Cn2cnc3ccccc3c2=O)cc1S(N)(=O)=O [Compound 136, N-(4-Methoxy-3-sulfamoyl-phenyl)-2-(4-oxo-4H-quinazolin-3-yl)-acetamide] | > 25 | –
32 | Cc1ccc(-n2c(CCC(=O)NCc3ccc(S(N)(=O)=O)cc3)nc3ccccc3c2=O)cc1 [Compound 137, 3-(4-Oxo-3-p-tolyl-3,4-dihydro-quinazolin-2-yl)-N-(4-sulfamoyl-benzyl)-propionamide] | > 25 | –
33 | O=C(Cn1cnc2ccc(Cl)cc2c1=O)Nc1ccc(S(=O)(=O)N2CCCCCC2)cc1 [Compound 138, N-[4-(Azepane-1-sulfonyl)-phenyl]-2-(6-chloro-4-oxo-4H-quinazolin-3-yl)-acetamide] | > 25 | –
34 | O=C(Cn1cnc2cc(F)ccc2c1=O)Nc1ccc(S(=O)(=O)N2CCCCCC2)cc1 [Compound 139, N-[4-(Azepane-1-sulfonyl)-phenyl]-2-(7-fluoro-4-oxo-4H-quinazolin-3-yl)-acetamide] | > 25 | –
